Reference: PMC9743092, “Membrane-Active Cyclic Amphiphilic Peptides: Broad-Spectrum Antibacterial Activity Alone and in Combination with Antibiotics” (Journal of Medicinal Chemistry, 2022)
Converted amounts (≈) assume the structure as drawn. Where two headings read alike, the source gives them in different places. Bridge positions count the residues as written; N and C are the ends. Square brackets hold non-standard residues; d marks the D form. Peptide text beside a SMILES is read from it. * marks the point of attachment. X1 = CC[C@H](C)CCCCC(=O)*; Dab = NCC[C@H](N)C(=O)O

Tests used:
[1] = test system: human skin fibroblast cells (HeKa)
[2] = test system: liver (HepaRG) cells
[3] = test system: kidney (HEK-293) cells
[4] = test system: normal lung (MRC-5) cells
[5] = set-up: method as in PMID 25808204; settings: cited from earlier work
[6] = test system: P. aeruginosa (ATCC 27853); assay: microbe, parasite or virus in culture; settings: Pseudomonas aeruginosa, ATCC27853, read-out: MIC P. aeruginosa (ATCC 27853)
[7] = test system: E. coli (ATCC 25922); assay: microbe, parasite or virus in culture; settings: Escherichia coli, ATCC25922, read-out: MIC E. coli (ATCC 25922)
[8] = test system: K. pneumoniae (1188718); assay: microbe, parasite or virus in culture; settings: Klebsiella pneumoniae, read-out: MIC K. pneumoniae (1188718)
[9] = test system: E. coli (1191008); assay: microbe, parasite or virus in culture; settings: Escherichia coli, read-out: MIC E. coli (1191008)
[10] = test system: K. pneumoniae (ATCC 700603); assay: microbe, parasite or virus in culture; settings: Klebsiella pneumoniae, ATCC700603, read-out: MIC K. pneumoniae (ATCC 700603)
[11] = test system: P. aeruginosa (1188712); assay: microbe, parasite or virus in culture; settings: Pseudomonas aeruginosa, read-out: MIC P. aeruginosa (1188712)
[12] = test system: S. aureus (ATCC 29213); assay: microbe, parasite or virus in culture; settings: Staphylococcus aureus, ATCC29213, read-out: MIC S. aureus (ATCC 29213)
[13] = test system: S. aureus (1193193); assay: microbe, parasite or virus in culture; settings: Staphylococcus aureus, read-out: MIC S. aureus (1193193)
[14] = test system: E. coli (ATCC 25922); settings: antibiotic alone or physical mixture with peptide (1:1 w/w)
[15] = test system: S. aureus (ATCC BAA-1556); assay: Synergistic checkerboard assay; assay type: cell-based; settings: Staphylococcus aureus
[16] = test system: MRSA (ATCC BAA-1556); assay: microbe, parasite or virus in culture; settings: Staphylococcus aureus, ATCCBAA1556|MRSA, 24 h, read-out: MBC MRSA (ATCC BAA-1556)
[17] = test system: E. coli (ATCC 25922); assay: microbe, parasite or virus in culture; settings: Escherichia coli, ATCC25922, 24 h, read-out: MBC E. coli (ATCC 25922)
[18] = test system: K. pneumoniae (ATCC BAA-1705); assay: microbe, parasite or virus in culture; settings: Klebsiella pneumoniae, ATCCBAA1705, 24 h, read-out: MBC K. pneumoniae (ATCC BAA-1705)
[19] = test system: MRSA (ATCC BAA-1556); settings: antibiotic alone or physical mixture with peptide (1:1 w/w)
[20] = test system: P. aeruginosa (ATCC 27883); assay: microbe, parasite or virus in culture; settings: Pseudomonas aeruginosa, ATCC27883, 24 h, read-out: MBC P. aeruginosa (ATCC 27883)
[21] = test system: P. aeruginosa (ATCC 27883); assay: Synergistic checkerboard assay; assay type: cell-based; settings: Pseudomonas aeruginosa
[22] = test system: P. aeruginosa (ATCC 27883); settings: antibiotic alone or physical mixture with peptide (1:1 w/w)
[23] = test system: E. coli (ATCC 25922); assay: Synergistic checkerboard assay; assay type: cell-based; settings: Escherichia coli
[24] = Calcein dye leakage assay; settings: 50 μg/mL, 100 min
[25] = test system: E. faecalis (ATCC 51575); assay: microbe, parasite or virus in culture; assay type: cell-based; settings: Enterococcus faecalis, ATCC51575; Gram-positive; gentamicin-, streptomycin-, vancomycin-resistant
Description: (§1) Daptomycin and polymyxin B were selected as positive controls against Gram-positive and Gram-negative bacteria, respectively.
(§2) All experiments were conducted in triplicate.

[26] = test system: E. faecalis (ATCC 29212); assay: microbe, parasite or virus in culture; assay type: cell-based; settings: Enterococcus faecalis, ATCC29212; Gram-positive
Description: as §1, §2

[27] = test system: S. pneumonia (ATCC 51938); assay: microbe, parasite or virus in culture; assay type: cell-based; settings: Streptococcus pneumoniae, ATCC51938; Gram-positive; penicillin-, clindamycin-, cotrimoxazole-, erythromycin-resistant
Description: as §1, §2

[28] = test system: E. faecium (ATCC 27270); assay: microbe, parasite or virus in culture; assay type: cell-based; settings: Enterococcus faecium, ATCC27270; Gram-positive
Description: as §1, §2

[29] = test system: Bacillus subtilis (ATCC-6633); assay: microbe, parasite or virus in culture; assay type: cell-based; settings: ATCC6633, Gram-positive
Description: as §1, §2

[30] = test system: S. pneumonia (ATCC 49619); assay: microbe, parasite or virus in culture; assay type: cell-based; settings: Streptococcus pneumoniae, ATCC49619; Gram-positive
Description: as §1, §2

[31] = test system: S. aureus (ATCC 29213), MRSA (ATCC BAA-1556), E. coli (ATCC 25922), E. coli (ATCC BAA-2452); assay: Serial passage resistance development study; assay type: cell-based, S. aureus and E. coli; settings: 18 repeated passages
[32] = Calcein dye leakage assay; settings: 50 μg/mL, 100 min; remark: listed apart in the source
[33] = test system: K. pneumoniae (ATCC BAA-1705); settings: antibiotic alone or physical mixture with peptide (1:1 w/w)
[34] = test system: K. pneumoniae (ATCC BAA-1705); assay: Synergistic checkerboard assay; settings: Klebsiella pneumoniae, ATCCBAA1705, read-out: MIC antibiotic alone
[35] = test system: P. aeruginosa (ATCC 27883); assay: microbe, parasite or virus in culture; settings: Pseudomonas aeruginosa, ATCC27883, read-out: MIC P. aeruginosa (ATCC 27883)
[36] = test system: E. coli (ATCC 25922); assay: microbe, parasite or virus in culture; settings: Escherichia coli, ATCC25922, read-out: MIC E. coli (ATCC 25922); remark: listed apart in the source
[37] = test system: MRSA (ATCC BAA-1556); assay: microbe, parasite or virus in culture; settings: Staphylococcus aureus
[38] = test system: K. pneumoniae (ATCC BAA-1705); assay: microbe, parasite or virus in culture; settings: Klebsiella pneumoniae, ATCCBAA1705, read-out: MIC K. pneumoniae (ATCC BAA-1705)
[39] = test system: K. pneumoniae (ATCC 13883); assay: microbe, parasite or virus in culture; assay type: cell-based; settings: Klebsiella pneumoniae, ATCC13883, read-out: MIC K. pneumoniae (ATCC 13883)
Description: as §1, §2

[40] = test system: E. coli (ATCC BAA-2452); assay: microbe, parasite or virus in culture; assay type: cell-based; settings: Escherichia coli, ATCCBAA2452, read-out: MIC E. coli (ATCC BAA-2452)
Description: as §1, §2

[41] = test system: P. aeruginosa (ATCC BAA-1744); assay: microbe, parasite or virus in culture; assay type: cell-based; settings: Pseudomonas aeruginosa, ATCCBAA1744, read-out: MIC P. aeruginosa (ATCC BAA-1744)
Description: as §1, §2

[42] = test system: Acinetobacter baumannii (ATCCBAA-1605); assay: microbe, parasite or virus in culture; assay type: cell-based; settings: ATCCBAA1605, read-out: MIC Acinetobacter baumannii (ATCCBAA-1605)
Description: as §1, §2

[43] = test system: P. aeruginosa (ATCC 10145); assay: microbe, parasite or virus in culture; assay type: cell-based; settings: Pseudomonas aeruginosa, ATCC10145, read-out: MIC P. aeruginosa (ATCC 10145)
Description: as §1, §2

[44] = ATCCBAA1556, checkerboard, read-out: MIC antibiotic alone
[45] = ATCC27883, checkerboard, read-out: MIC antibiotic alone
[46] = ATCC25922, checkerboard, read-out: MIC antibiotic alone
[47] = read-out: MIC MRSA (ATCC BAA-1556)

## C[S+](C)[O-] [DMSO (30%), DMSO]
[1]
  cell viability: 7–11%
[2]
  cell viability: 7–11%
[3]
  cell viability: 7–11%
[4]
  cell viability: 7–11%

## N=C(N)NCCC[C@H](N)C(=O)O [arginine]
[5]
  pKa value of the arginine guanidinium group: 13.8 ± 0.1

## CO/N=C(\C(=O)N[C@@H]1C(=O)N2C(C(=O)[O-])=C(C[N+]3(C)CCCC3)CS[C@H]12)c1csc(N)n1 [cefepime]
[6]
  MIC: 1 µg/mL (≈ 2.08 µM)
[7]
  MIC: 0.06 µg/mL (≈ 0.125 µM)
[8]
  MIC: 8 µg/mL (≈ 16.6 µM)
[9]
  MIC: 8 µg/mL (≈ 16.6 µM)
[10]
  MIC: 1 µg/mL (≈ 2.08 µM)
[11]
  MIC: 8 µg/mL (≈ 16.6 µM)
[12]
  MIC: 2 µg/mL (≈ 4.16 µM)
[13]
  MIC: 16 µg/mL (≈ 33.3 µM)

## O=C(O)c1cn(C2CC2)c2cc(N3CCNCC3)c(F)cc2c1=O [ciprofloxacin]
[14]
  MIC E. coli (ATCC 25922): 64 µg/mL (≈ 193 µM)
[15]; [44]
  MIC: 16 µg/mL
[16]
  MBC: 32 µg/mL (≈ 96.6 µM)
[17]
  MBC: 16 µg/mL (≈ 48.3 µM)
[18]
  MBC: 16 µg/mL (≈ 48.3 µM)
[19]
  MIC S. aureus (ATCC BAA-1556): 16 µg/mL (≈ 48.3 µM)
[20]
  MBC: 8 µg/mL (≈ 24.1 µM)

## CCCCCCCCCC(=O)N[C@@H](Cc1c[nH]c2ccccc12)C(=O)N[C@H](CC(N)=O)C(=O)N[C@@H](CC(=O)O)C(=O)N[C@@H]1C(=O)NCC(=O)N[C@@H](CCCN)C(=O)N[C@@H](CC(=O)O)C(=O)N[C@H](C)C(=O)N[C@@H](CC(=O)O)C(=O)NCC(=O)N[C@H](CO)C(=O)N[C@@H]([C@H](C)CC(=O)O)C(=O)N[C@@H](CC(=O)c2ccccc2N)C(=O)O[C@@H]1C [daptomycin]
[14]
  MIC E. coli (ATCC 25922): 256 µg/mL (≈ 158 µM)
[21]; [45]
  MIC: 512 µg/mL
[22]
  MIC P. aeruginosa (ATCC 27883): 512 µg/mL (≈ 316 µM)
[16]
  MBC: 8 µg/mL (≈ 4.94 µM)
[23]; [46]
  MIC: > 128 µg/mL
[24]
  calcein dye release: 42%
[25]
  MIC: 4 µg/mL (≈ 2.47 µM)
[26]
  MIC: 16 µg/mL (≈ 9.87 µM)
[27]
  MIC: 8 µg/mL (≈ 4.94 µM)
[28]
  MIC: 4 µg/mL (≈ 2.47 µM)
[29]
  MIC: 0.5 µg/mL (≈ 0.309 µM)
[30]
  MIC: 4 µg/mL (≈ 2.47 µM)
[31]
  change in MIC on resistance induction: negligible changes in the MICs
[32]
  calcein dye leakage: around 7%
[33]
  MIC K. pneumoniae (ATCC BAA-1705): 512 µg/mL (≈ 316 µM)
[34]
  MIC: 512 µg/mL

## C[C@@H](O)[C@H]1C(=O)N2C(C(=O)O)=C(S[C@@H]3CN[C@H](C(=O)N(C)C)C3)[C@H](C)[C@H]12 [meropenem]
[15]; [44]
  MIC: 2 µg/mL
[35]
  MIC: 1 µg/mL (≈ 2.61 µM)
[21]; [45]
  MIC: 1 µg/mL
[16]
  MBC: 8 µg/mL (≈ 20.9 µM)
[36]
  MIC: 1 µg/mL (≈ 2.61 µM)
[23]; [46]
  MIC: 1 µg/mL
[17]
  MBC: 2 µg/mL (≈ 5.22 µM)
[18]
  MBC: 64 µg/mL (≈ 167 µM)
[20]
  MBC: 4 µg/mL (≈ 10.4 µM)
[37]; [47]
  MIC: 2 µg/mL (≈ 5.22 µM)
[37]; read-out: MIC S. aureus (ATCC BAA-1556)
  MIC: 2 µg/mL (≈ 5.22 µM)

## CC[C@H](C)CCCCC(=O)N[C@@H](CCN)C(=O)N[C@H](C(=O)N[C@@H](CCN)C(=O)N[C@H]1CCNC(=O)[C@H]([C@@H](C)O)NC(=O)[C@H](CCN)NC(=O)[C@H](CCN)NC(=O)[C@H](CC(C)C)NC(=O)[C@@H](Cc2ccccc2)NC(=O)[C@H](CCN)NC1=O)[C@@H](C)O [polymyxin B] (X1-[Dab]T[Dab][Dab][Dab][dF]L[Dab][Dab]T; lactam 4-C)
[15]; ATCCBAA1556, read-out: MIC antibiotic alone
  MIC: 64 µg/mL
[35]
  MIC: 1 µg/mL (≈ 0.831 µM)
[21]; ATCC27883, read-out: MIC antibiotic alone
  MIC: 1 µg/mL
[36]
  MIC: 2 µg/mL (≈ 1.66 µM)
[23]; ATCC25922, read-out: MIC antibiotic alone
  MIC: 2 µg/mL
[17]
  MBC: 4 µg/mL (≈ 3.32 µM)
[38]
  MIC: 1 µg/mL (≈ 0.831 µM)
[39]
  MIC: 1 µg/mL (≈ 0.831 µM)
[40]
  MIC: 1 µg/mL (≈ 0.831 µM)
[41]
  MIC: 2 µg/mL (≈ 1.66 µM)
[42]
  MIC: 1 µg/mL (≈ 0.831 µM)
[43]
  MIC: 2 µg/mL (≈ 1.66 µM)
[31]
  change in MIC on resistance induction: negligible changes in the MICs
[18]
  MBC: 2 µg/mL (≈ 1.66 µM)
[34]
  MIC: 1 µg/mL
[19]
  MIC S. aureus (ATCC BAA-1556): 64 µg/mL (≈ 53.2 µM)
[20]
  MBC: 2 µg/mL (≈ 1.66 µM)
[37]; [47]
  MIC: 64 µg/mL (≈ 53.2 µM)
